Measured values published in PMC11842588, “A first-in-class selective inhibitor of ERK1/2 and ERK5 overcomes drug resistance with a single-molecule strategy” (Signal Transduction and Targeted Therapy, 2025).

What was measured:
Experiment in all cases: Kinase profiling
Assay type in all cases: biochemical
[1] = molecular target: T1, Pim-3(h) (Homo sapiens, UniProt Q86V86)
T1 construct: purchased Eurofins Cerep SA (KinaseProfiler)
Procedure: (§1) 380 kinases inhibitory activities of SKLB-D18 were conducted by Eurofins Cerep SA. The result was illustrated by kinase tree (http://www.kinhub.org/kinmap/).

[2] = molecular target: T2, PKCα(h) (Homo sapiens, UniProt P17252)
T2 construct: purchased Eurofins Cerep SA (KinaseProfiler)
Procedure: as §1

[3] = molecular target: T3, TSSK2(h) (Homo sapiens, UniProt Q96PF2)
T3 construct: purchased Eurofins Cerep SA (KinaseProfiler)
Procedure: as §1

[4] = molecular target: T4, CK2(h) (Homo sapiens, UniProt P68400)
T4 construct: purchased Eurofins Cerep SA (KinaseProfiler)
Procedure: as §1

[5] = molecular target: T5, BrSK1(h) (Homo sapiens, UniProt Q8TDC3)
T5 construct: purchased Eurofins Cerep SA (KinaseProfiler)
Procedure: as §1

[6] = molecular target: T6, MYLK2(h) (Homo sapiens, UniProt Q9H1R3)
T6 construct: purchased Eurofins Cerep SA (KinaseProfiler)
Procedure: as §1

[7] = molecular target: T7, WNK4(h) (Homo sapiens, UniProt Q96J92)
T7 construct: purchased Eurofins Cerep SA (KinaseProfiler)
Procedure: as §1

[8] = molecular target: T8, ZIPK(h) (Homo sapiens, UniProt O43293)
T8 construct: purchased Eurofins Cerep SA (KinaseProfiler)
Procedure: as §1

[9] = molecular target: T9, DDR1(h) (Homo sapiens, UniProt Q08345)
T9 construct: purchased Eurofins Cerep SA (KinaseProfiler)
Procedure: as §1

[10] = molecular target: T10, KDR(h) (Homo sapiens, UniProt P35968)
T10 construct: purchased Eurofins Cerep SA (KinaseProfiler)
Procedure: as §1

[11] = molecular target: T11, ULK1(h) (Homo sapiens, UniProt O75385)
T11 construct: purchased Eurofins Cerep SA (KinaseProfiler)
Procedure: as §1

[12] = molecular target: T12, Fes(h) (Homo sapiens, UniProt P07332)
T12 construct: purchased Eurofins Cerep SA (KinaseProfiler)
Procedure: as §1

[13] = molecular target: T13, LKB1(h) (Homo sapiens, UniProt Q15831)
T13 construct: purchased Eurofins Cerep SA (KinaseProfiler)
Procedure: as §1

[14] = molecular target: T14, Ros(h) (Homo sapiens, UniProt P08922)
T14 construct: purchased Eurofins Cerep SA (KinaseProfiler)
Procedure: as §1

[15] = molecular target: T15, COT(h) (Homo sapiens, UniProt P41279)
T15 construct: purchased Eurofins Cerep SA (KinaseProfiler)
Procedure: as §1

[16] = molecular target: T16, Wee1B(h) (Homo sapiens, UniProt P0C1S8)
T16 construct: purchased Eurofins Cerep SA (KinaseProfiler)
T16 sequence (P0C1S8 whole entry): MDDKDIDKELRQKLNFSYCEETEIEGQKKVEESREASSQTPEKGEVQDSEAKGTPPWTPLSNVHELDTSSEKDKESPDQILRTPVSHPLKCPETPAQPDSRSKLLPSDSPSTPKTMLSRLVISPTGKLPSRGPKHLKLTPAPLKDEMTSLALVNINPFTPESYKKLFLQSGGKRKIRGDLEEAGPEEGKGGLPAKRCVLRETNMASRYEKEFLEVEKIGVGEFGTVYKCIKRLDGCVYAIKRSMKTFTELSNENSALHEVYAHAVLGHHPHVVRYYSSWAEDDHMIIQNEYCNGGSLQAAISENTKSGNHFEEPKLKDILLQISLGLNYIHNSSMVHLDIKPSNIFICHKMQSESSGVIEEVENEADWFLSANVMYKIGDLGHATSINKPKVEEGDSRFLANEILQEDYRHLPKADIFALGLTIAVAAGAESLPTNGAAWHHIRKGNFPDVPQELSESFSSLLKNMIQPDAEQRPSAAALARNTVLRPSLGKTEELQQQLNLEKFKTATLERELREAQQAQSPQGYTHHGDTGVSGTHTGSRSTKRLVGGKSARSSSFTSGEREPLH
Procedure: as §1

[17] = molecular target: T17, NEK2(h) (Homo sapiens, UniProt P51955)
T17 construct: purchased Eurofins Cerep SA (KinaseProfiler)
Procedure: as §1

[18] = molecular target: T18, HIPK4(h) (Homo sapiens, UniProt Q8NE63)
T18 construct: purchased Eurofins Cerep SA (KinaseProfiler)
Procedure: as §1

[19] = molecular target: T19, STK32B(h) (Homo sapiens, UniProt Q9NY57)
T19 construct: purchased Eurofins Cerep SA (KinaseProfiler)
Procedure: as §1

[20] = molecular target: T20, JAK3(h) (Homo sapiens, UniProt P52333)
T20 construct: purchased Eurofins Cerep SA (KinaseProfiler)
Procedure: as §1

[21] = molecular target: T21, EphA5(h) (Homo sapiens, UniProt P54756)
T21 construct: purchased Eurofins Cerep SA (KinaseProfiler)
Procedure: as §1

[22] = molecular target: T22, MST4(h) (Homo sapiens, UniProt Q9P289)
T22 construct: purchased Eurofins Cerep SA (KinaseProfiler)
Procedure: as §1

[23] = molecular target: T23, CHK2(h) (Homo sapiens, UniProt O96017)
T23 construct: purchased Eurofins Cerep SA (KinaseProfiler)
Procedure: as §1

[24] = molecular target: T24, DCAMKL1(h) (Homo sapiens, UniProt O15075)
T24 construct: purchased Eurofins Cerep SA (KinaseProfiler)
Procedure: as §1

[25] = molecular target: T25, DMPK(h) (Homo sapiens, UniProt Q09013)
T25 construct: purchased Eurofins Cerep SA (KinaseProfiler)
T25 sequence (Q09013 whole entry): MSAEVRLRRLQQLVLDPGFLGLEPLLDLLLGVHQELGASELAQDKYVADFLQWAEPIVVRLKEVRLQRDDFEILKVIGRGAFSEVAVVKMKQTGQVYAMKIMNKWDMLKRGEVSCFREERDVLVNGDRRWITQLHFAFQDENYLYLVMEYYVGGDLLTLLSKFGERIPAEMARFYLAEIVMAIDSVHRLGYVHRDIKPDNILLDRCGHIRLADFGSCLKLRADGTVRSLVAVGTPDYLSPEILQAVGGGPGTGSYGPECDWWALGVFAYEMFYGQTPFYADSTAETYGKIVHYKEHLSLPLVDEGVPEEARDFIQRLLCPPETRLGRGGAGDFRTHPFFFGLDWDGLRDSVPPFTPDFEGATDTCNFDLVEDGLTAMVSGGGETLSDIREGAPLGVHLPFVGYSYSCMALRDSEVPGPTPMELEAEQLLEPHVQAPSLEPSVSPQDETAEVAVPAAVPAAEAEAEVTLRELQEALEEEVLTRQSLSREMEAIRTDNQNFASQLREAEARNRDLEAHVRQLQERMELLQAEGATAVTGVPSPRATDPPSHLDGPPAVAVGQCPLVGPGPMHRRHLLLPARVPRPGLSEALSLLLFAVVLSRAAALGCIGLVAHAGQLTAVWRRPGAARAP
Procedure: as §1

[26] = molecular target: T26, TTK(h) (Homo sapiens, UniProt P33981)
T26 construct: purchased Eurofins Cerep SA (KinaseProfiler)
Procedure: as §1

[27] = molecular target: T27, IKKα(h) (Homo sapiens, UniProt O15111)
T27 construct: purchased Eurofins Cerep SA (KinaseProfiler)
Procedure: as §1

[28] = molecular target: T28, SAPK3(h) (Homo sapiens, UniProt P53778)
T28 construct: purchased Eurofins Cerep SA (KinaseProfiler)
T28 sequence (P53778 whole entry): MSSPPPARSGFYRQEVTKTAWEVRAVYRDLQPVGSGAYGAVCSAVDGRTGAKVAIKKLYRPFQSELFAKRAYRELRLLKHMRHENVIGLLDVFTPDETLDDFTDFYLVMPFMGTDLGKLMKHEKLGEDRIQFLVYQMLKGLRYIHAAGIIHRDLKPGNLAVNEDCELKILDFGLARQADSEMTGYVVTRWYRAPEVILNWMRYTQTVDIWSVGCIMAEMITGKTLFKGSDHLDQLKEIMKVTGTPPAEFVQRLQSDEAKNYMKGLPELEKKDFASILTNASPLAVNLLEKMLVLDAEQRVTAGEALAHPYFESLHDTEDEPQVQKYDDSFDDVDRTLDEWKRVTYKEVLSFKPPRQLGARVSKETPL
Procedure: as §1

[29] = molecular target: T29, ErbB4(h) (Homo sapiens, UniProt Q15303)
T29 construct: purchased Eurofins Cerep SA (KinaseProfiler)
T29 sequence (Q15303 26-1308): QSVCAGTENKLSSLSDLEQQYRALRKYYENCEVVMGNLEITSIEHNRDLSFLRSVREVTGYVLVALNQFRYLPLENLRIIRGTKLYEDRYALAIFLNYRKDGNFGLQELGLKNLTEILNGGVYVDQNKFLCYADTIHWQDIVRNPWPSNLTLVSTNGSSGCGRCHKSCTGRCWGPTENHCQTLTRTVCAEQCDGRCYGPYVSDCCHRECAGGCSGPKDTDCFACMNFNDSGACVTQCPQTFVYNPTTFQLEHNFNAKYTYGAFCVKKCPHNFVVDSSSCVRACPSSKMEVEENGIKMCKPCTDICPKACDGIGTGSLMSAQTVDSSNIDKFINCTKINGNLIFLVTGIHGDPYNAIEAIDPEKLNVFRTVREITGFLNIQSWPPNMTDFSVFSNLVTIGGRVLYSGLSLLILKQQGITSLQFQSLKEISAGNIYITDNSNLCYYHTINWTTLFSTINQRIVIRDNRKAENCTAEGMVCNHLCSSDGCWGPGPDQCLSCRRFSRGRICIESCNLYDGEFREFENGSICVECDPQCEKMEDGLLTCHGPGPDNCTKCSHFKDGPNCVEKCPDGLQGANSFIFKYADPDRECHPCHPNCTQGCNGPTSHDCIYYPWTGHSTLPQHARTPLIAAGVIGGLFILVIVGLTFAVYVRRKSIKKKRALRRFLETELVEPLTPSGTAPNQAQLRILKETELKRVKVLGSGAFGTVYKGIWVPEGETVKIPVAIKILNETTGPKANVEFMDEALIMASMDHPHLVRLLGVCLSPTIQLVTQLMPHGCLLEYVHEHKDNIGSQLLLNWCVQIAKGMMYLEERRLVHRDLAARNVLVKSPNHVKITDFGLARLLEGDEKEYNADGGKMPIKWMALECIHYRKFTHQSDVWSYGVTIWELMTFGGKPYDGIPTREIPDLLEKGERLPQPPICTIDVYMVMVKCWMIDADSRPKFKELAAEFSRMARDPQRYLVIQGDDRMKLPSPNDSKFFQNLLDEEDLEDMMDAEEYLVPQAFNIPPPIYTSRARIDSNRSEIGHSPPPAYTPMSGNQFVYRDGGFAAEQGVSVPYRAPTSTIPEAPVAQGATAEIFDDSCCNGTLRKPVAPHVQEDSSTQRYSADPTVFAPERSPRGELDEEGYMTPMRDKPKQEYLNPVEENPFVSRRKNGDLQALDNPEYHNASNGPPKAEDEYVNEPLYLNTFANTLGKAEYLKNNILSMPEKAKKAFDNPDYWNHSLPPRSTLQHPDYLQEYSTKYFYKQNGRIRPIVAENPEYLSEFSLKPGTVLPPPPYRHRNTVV
Procedure: as §1

[30] = molecular target: T30, B-Raf(h) (Homo sapiens, UniProt P15056)
T30 construct: purchased Eurofins Cerep SA (KinaseProfiler)
Procedure: as §1

[31] = molecular target: T31, SRPK2(h) (Homo sapiens, UniProt P78362)
T31 construct: purchased Eurofins Cerep SA (KinaseProfiler)
Procedure: as §1

[32] = molecular target: T32, SGK2(h) (Homo sapiens, UniProt Q9HBY8)
T32 construct: purchased Eurofins Cerep SA (KinaseProfiler)
T32 sequence (Q9HBY8 whole entry): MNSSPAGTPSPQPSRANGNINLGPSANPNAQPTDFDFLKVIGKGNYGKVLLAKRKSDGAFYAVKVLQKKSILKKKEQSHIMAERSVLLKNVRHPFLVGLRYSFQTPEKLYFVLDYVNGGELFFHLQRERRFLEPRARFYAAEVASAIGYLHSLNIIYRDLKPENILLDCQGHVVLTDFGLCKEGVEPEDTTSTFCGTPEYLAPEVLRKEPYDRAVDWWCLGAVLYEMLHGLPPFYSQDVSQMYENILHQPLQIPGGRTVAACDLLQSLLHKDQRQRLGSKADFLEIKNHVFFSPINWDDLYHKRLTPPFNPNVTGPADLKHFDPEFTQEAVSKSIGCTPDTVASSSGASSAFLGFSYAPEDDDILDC
Procedure: as §1

[33] = molecular target: T33, PAR-1Bα(h) (Homo sapiens, UniProt Q7KZI7)
T33 construct: purchased Eurofins Cerep SA (KinaseProfiler)
Procedure: as §1

[34] = molecular target: T34, MSSK1(h) (Homo sapiens, UniProt Q9UPE1)
T34 construct: purchased Eurofins Cerep SA (KinaseProfiler)
Procedure: as §1

[35] = molecular target: T35, ErbB2(h) (Homo sapiens, UniProt P04626)
T35 construct: purchased Eurofins Cerep SA (KinaseProfiler)
Procedure: as §1

[36] = molecular target: T36, TYK2(h) (Homo sapiens, UniProt P29597)
T36 construct: purchased Eurofins Cerep SA (KinaseProfiler)
T36 sequence (P29597 whole entry): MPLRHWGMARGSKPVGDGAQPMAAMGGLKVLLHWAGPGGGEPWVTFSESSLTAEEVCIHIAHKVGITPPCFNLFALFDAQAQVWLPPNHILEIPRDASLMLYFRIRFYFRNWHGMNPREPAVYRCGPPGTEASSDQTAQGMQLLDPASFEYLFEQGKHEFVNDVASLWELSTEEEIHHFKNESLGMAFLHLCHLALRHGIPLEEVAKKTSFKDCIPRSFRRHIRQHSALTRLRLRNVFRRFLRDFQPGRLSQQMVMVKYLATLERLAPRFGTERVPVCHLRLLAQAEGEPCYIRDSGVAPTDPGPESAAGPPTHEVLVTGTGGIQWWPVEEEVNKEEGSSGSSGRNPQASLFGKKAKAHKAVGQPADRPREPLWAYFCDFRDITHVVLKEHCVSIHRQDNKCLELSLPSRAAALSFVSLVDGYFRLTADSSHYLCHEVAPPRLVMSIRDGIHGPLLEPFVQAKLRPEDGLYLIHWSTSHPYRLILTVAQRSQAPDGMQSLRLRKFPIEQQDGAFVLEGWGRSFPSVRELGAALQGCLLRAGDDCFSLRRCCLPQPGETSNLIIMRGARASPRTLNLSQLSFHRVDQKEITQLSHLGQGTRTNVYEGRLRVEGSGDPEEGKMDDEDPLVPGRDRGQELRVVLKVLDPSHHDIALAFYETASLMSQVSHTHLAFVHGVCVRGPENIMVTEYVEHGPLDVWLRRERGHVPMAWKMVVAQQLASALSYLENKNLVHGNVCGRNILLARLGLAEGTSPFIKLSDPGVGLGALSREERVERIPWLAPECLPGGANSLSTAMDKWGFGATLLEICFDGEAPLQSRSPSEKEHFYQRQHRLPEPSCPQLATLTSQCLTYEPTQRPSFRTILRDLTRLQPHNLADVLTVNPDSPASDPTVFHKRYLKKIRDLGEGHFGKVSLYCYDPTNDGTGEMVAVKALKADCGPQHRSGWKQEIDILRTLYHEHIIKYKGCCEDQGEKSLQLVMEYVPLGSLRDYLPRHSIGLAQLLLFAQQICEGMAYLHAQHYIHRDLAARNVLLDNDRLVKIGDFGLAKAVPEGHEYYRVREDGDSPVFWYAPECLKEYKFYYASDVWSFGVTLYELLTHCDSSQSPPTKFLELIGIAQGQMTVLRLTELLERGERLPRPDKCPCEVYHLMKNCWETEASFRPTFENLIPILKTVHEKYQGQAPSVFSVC
Procedure: as §1

[37] = molecular target: T37, NUAK2(h) (Homo sapiens, UniProt Q9H093)
T37 construct: purchased Eurofins Cerep SA (KinaseProfiler)
Procedure: as §1

[38] = molecular target: T38, STK32A(h) (Homo sapiens, UniProt Q8WU08)
T38 construct: purchased Eurofins Cerep SA (KinaseProfiler)
Procedure: as §1

[39] = molecular target: T39, Ret(h) (Homo sapiens, UniProt P07949)
T39 construct: purchased Eurofins Cerep SA (KinaseProfiler)
Procedure: as §1

[40] = molecular target: T40, MEK1(h) (Homo sapiens, UniProt Q02750)
T40 construct: purchased Eurofins Cerep SA (KinaseProfiler)
Procedure: as §1

[41] = molecular target: T41, NEK11(h) (Homo sapiens, UniProt Q8NG66)
T41 construct: purchased Eurofins Cerep SA (KinaseProfiler)
Procedure: as §1

## CN(C)Cc1cccc(Nc2ncc(Cl)c(-c3csc(C(=O)NN4CCOCC4)c3)n2)c1 [SKLB-D18, 4-(5-chloro-2-((3-((dimethylamino)methyl)phenyl)amino)pyrimidin-4-yl)-N-morpholinothiophene-2-carboxamide]
[1]
  inhibition at 1 µM: 33%
[2]
  inhibition at 1 µM: 21%
[3]
  inhibition at 1 µM: -2%
[4]
  inhibition at 1 µM: 68%
[5]
  inhibition at 1 µM: 2%
[6]
  inhibition at 1 µM: 68%
[7]
  inhibition at 1 µM: 18%
[8]
  inhibition at 1 µM: 64%
[9]
  inhibition at 1 µM: 35%
[10]
  inhibition at 1 µM: 66%
[11]
  inhibition at 1 µM: 49%
[12]
  inhibition at 1 µM: 53%
[13]
  inhibition at 1 µM: 29%
[14]
  inhibition at 1 µM: -4%
[15]
  inhibition at 1 µM: -5%
[16]
  inhibition at 1 µM: 49%
[17]
  inhibition at 1 µM: 42%
[18]
  inhibition at 1 µM: 67%
[19]
  inhibition at 1 µM: -3%
[20]
  inhibition at 1 µM: 67%
[21]
  inhibition at 1 µM: 3%
[22]
  inhibition at 1 µM: 15%
[23]
  inhibition at 1 µM: 19%
[24]
  inhibition at 1 µM: 17%
[25]
  inhibition at 1 µM: 8%
[26]
  inhibition at 1 µM: 34%
[27]
  inhibition at 1 µM: 34%
[28]
  inhibition at 1 µM: 25%
[29]
  inhibition at 1 µM: -16%
[30]
  inhibition at 1 µM: 59%
[31]
  inhibition at 1 µM: 9%
[32]
  inhibition at 1 µM: 11%
[33]
  inhibition at 1 µM: 65%
[34]
  inhibition at 1 µM: -19%
[35]
  inhibition at 1 µM: -3%
[36]
  inhibition at 1 µM: 83%
[37]
  inhibition at 1 µM: 67%
[38]
  inhibition at 1 µM: -3%
[39]
  inhibition at 1 µM: 81%
[40]
  inhibition at 1 µM: 15%
[41]
  inhibition at 1 µM: -4%
